Source: patent publication US20220411448A1, “CHROMENE-4-ONE DERIVATIVES AS BRAIN-DERIVED NEUROTROPHIC FACTOR (BDNF) MIMETICS” (FLORATEK PHARMA AG, priority 2019, published 2022)

Tests used:
[1] = test system: primary cultures of cortical neurons; assay: Primary neuronal culture viability (MTT assay); format: cell-based, mouse; details: primary neuron culture, 24 hours
Protocol: For neuronal cultures, primary cultures of cortical neurons were prepared from embryonic day 17 (E17) OF1 mice embryos (Charles River Laboratories) as previously described [Allaman I., Pellerin L., Magistretti P. J. (2004) Glucocorticoids modulate neurotransmitter-induced glycogen metabolism in cultured cortical astrocytes. J. Neurochem. 88, 900-908] or from C57BL/6JRccHsd mice at E18. Animals were sacrificed and embryos were dissected in Calcium and Magnesium free Hanks Balanced Salt Solution (CMF-HBSS) containing 15 mM HEPES and 10 mM NaHCO3, pH 7.2. Embryos were decapitated, skin and skull gently removed and hemispheres were separated. […]
The MTT assay was conducted according to manufacturer's instructions (Invitrogen/Molecular Probes, Eugene, Oreg.) and was measured using a plate reader at an absorbance wavelength of 570 nm. Cell survival rate was expressed either as the absorbance values or as optical density (OD), with values calculated as % of controls.
Primary neuronal culture viability in the presence of Compound A/SND118 Primary neuron culture was prepared as described and treated with Compound A/SND118 at various concentrations for 24 hours. Cellular viability was measured using MTT assay as described.

astrocytes cultures = assay: ROS formation (H2DCF-DA kit); format: cell-based, mouse; details: various concentrations, 2 h
Protocol: ROS formation has been determined as described [Yang J et al, Lactate promotes plasticity gene expression by potentiating NMDA signalling in neurons. Proc Natl Acad Sci USA. 2014. 111(33):12228-33] using a H2DCF-DA kit (ThermoFisher) as recommended by the manufacturer. Briefly, astrocytes cultures were washed twice with HBSS and incubated for 60 min in 50 μM in HBSS at 37° C. and 5% CO2 in the presence of the dye. After two washing steps with prewarmed HBSS the cells were treated with increasing concentrations of 100 μL Compound A at 37° C. and 5% CO2. Fluorescence intensity was measured after 2 h from the same plate using a fluorescence microplate reader (Safire 2; Tecan) at an excitation wavelength of 485 nm and an emission wavelength of 528 nm.
To assess the effect of Compound A on ROS accumulation in primary neuron cultures, the cells were treated with various concentration of Compound A for 2 hours and ROS was measured as described (FIG. 4).

NO = assay: LPS stimulation of BV-2 microglia: NO (Griess reagent); format: cell-based, murine; details: between 0.3 and 3 μM, BV2, LPS 500 ng/ml, 24 h
Protocol: The murine microglial cell line BV-2 was grown in DMEM medium supplemented with 10% FCS, 1% penicillin/streptomycin and 2 mM L-glutamine (culture medium). For LPS stimulation assay, 10000 BV-2 cells per well (uncoated 96 well plates) were plated and after 24 hours, medium was changed to serum-free treatment medium (DMEM, 2 mM L-glutamine) and cells were maintained in treatment medium for the remaining culture period. 1 h after changing cells to treatment medium, the test items were added 1 hour before LPS stimulation (Sigma-Aldrich; L6529; 1 mg/ml stock in ddH2O, final concentration in well: 500 ng/ml (dilutions in medium)). Cells treated with vehicle, cells treated with LPS alone, as well as cells treated with LPS plus reference dexamethasone at 10 μM item served as controls.
Following 24 h of stimulation, cell supernatants were collected for the NO, and cytokine measurements. Levels of 2 cytokines (TNF-α, IL-6) were measured by an immunosorbent assay (U-PLEX Custom […] Cytokine, Mesoscale Discovery) according to the instructions of the manufacturer and evaluated in comparison to calibration curves provided in the kit. […] Absorbance was measured at 570 nm. Nitrosative stress was evaluated in the study samples in comparison to a NaNO2 standard curve. […]

[2] = Metabolic stability in human intestine microsomes; format: in vitro ADME; details: both sexes, pooled intestine microsomes, pH 7.4, intestinal microsomes, 0.5 mg/ml protein, read-out: T1/2 IM human
Protocol: Sample type: pooled liver or intestine microsomes; Species: CD1-mouse (male), human (mixed gender) Time points: 0, 10, 20, 40, 60 min cofactors, and negative control;
Protein content: 0.5 mg/ml: Replicates: 2 with cofactors, 1 without cofactors; Cofactors: NADPH (1 mM)+UDPGA (1 mM)+15 μg/ml alamethicin Buffer: 0.1 M phosphate buffer pH 7.4, 2 mM MgCl2; Spiking solvent: 50% DMSO ( 1/100 to incubation); Quenching solvent: 2-fold volume of 75% ACN, Control: midazolam disappearance rate
The study compounds were incubated with liver or intestine microsomes as specified above. The collected samples were stored at −20 C until thawed at room temperature, centrifuged and analyzed as presented below.
The samples were analysed by UPLC/HR-MS (with data dependent MS/MS mode) to monitor substrate depletion (and later optionally metabolite formation). The analytical method was optimised by using the parent compound for optimum chromatographic properties (peak shape and retention) and mass spectrometric ionisation. Disappearance rate of the study compound was estimated based on relative LC/MS peak areas (o min marked as 100%), and was used to calculate in vitro half-life and clearance (and in vivo extrapolation of hepatic clearance).

## O=c1cc(-c2ccc(CCCC[P+](c3ccccc3)(c3ccccc3)c3ccccc3)cc2)oc2c(O)c(O)ccc12 [SND118, 4-[4-(7,8-dihydroxy-4-oxo-chromen-2-yl)phenyl]butyltriphenylphosphonium bromide]
[1]
  Cellular viability (MTT): concentration up to which not toxic: ≤ 10 µM
Astrocytes cultures
  ROS accumulation: decrease in ROS accumulation
NO
  level of NO in response to LPS stimulation: significantly decreased
[2]
  half-life at 1 μM: 30.8 min
